Results from patent publication US4933356A, “Diflunisal potentiation of acetazolamide in the control of intraocular pressure” (Cornell Research Foundation, Inc., priority 1988, dated 1990).
Several values for one entry are separate records, joined by “and”; a condition that tells them apart may be missing. Identical values can stand only once. Entries after “also recorded” stand apart in the source; their conditions may differ. Like-named read-outs stand apart in the source and are kept apart here.

Tests used:
[1] = tested on: glaucoma patients (intraocular pressure); assay: Change in intraocular pressure (IOP) in glaucoma patients after one week of added diflunisal; format: in vivo, human; settings: for Change in IOP following diflunisal treatment: Table I, mean ± SD; for effect of diflunisal on hypotensive action / IOP (in words): diflunisal added to stated drug
Protocol: (§3) All subjects taking part in this study participated voluntarily and an informed consent was obtained from each prior to their enrollment in the study. Forty-eight glaucoma patients (19 men and 29 women) on maximally tolerated antiglaucoma medications were assigned consecutively to the study. […] All eyes were treated with at least one preparation of topical antiglaucoma medications; pilocarpine (60 eyes), epinephrine or dipivefrin hydrochloride (27 eyes), timolol, levobunolol or betaxolol (80 eyes), and echothiophate iodide (17 eyes). Upon entering the study each patient received a full ophthalmologic examination which included a visual acuity determination, slitlamp examination, IOP measurement (baseline) with a Goldmann applanation tonometer, gonioscopy, and a dilated fundus examination. Patients were instructed to take oral diflunisal, 500 mg, twice daily for one week, while their regular antiglaucoma medications remained unchanged. A week later patients were examined again for visual acuity, slit lamp examination, IOP measurement and a history of side effects. Baseline and follow-up IOP was measured by the same investigator using the same tonometer at approximately the same time of day.

[2] = tested on: plasma albumin / plasma protein; settings: cited from earlier work
[3] = Plasma concentration of acetazolamide (total and free) in glaucoma patients, before/after diflunisal; format: in vivo, human; settings: for concentration: 15 patients, read-out: total acetazolamide plasma level
Protocol: (§1) In 15 acetazolamide-treated patients 2-3 cc of venous blood was drawn before and again, at the same time of day, after one week on diflunisal for determination of total plasma concentration of acetazolamide. The blood sample underwent centrifugation at 5000 rpm for 5 minutes, and the plasma was separated and refrigerated until analysis. In addition, the plasma of seven of these 15 acetazolamide-treated patients was subjected to dialysis for determination of binding to albumin.
A blood sample was also taken from six acetazolamide-treated patients twice at a one week interval without diflunisal treatment.
(§2) Acetazolamide was analyzed by assay against carbonic anhydrase (Maren, T. H., J. Pharmacol. Exp. Therap.. 130:26 (1960)). Dialysis was carried out in a specially constructed cell consisting of two chambers of 1 ml capacity separated by Spectra/Por membrane, MW cutoff 6,000-8,000, Spectrum Med. Industries. One ml plasma, after analysis for total drug, was introduced to one compartment and 1 ml physiological saline to the other. The solutions were each mixed for 18 hours at 25* and then analyzed and calculated for free and total drug.

[4] = Plasma unbound acetazolamide in patients by dialysis, before/after diflunisal; format: in vitro ADME; settings: human, seven patients
Protocol: as §1, §2

[5] = In vitro plasma binding of acetazolamide with graded concentrations of diflunisal (dialysis); format: in vitro ADME; settings: human, 90 μM acetazolamide
Protocol: An in vitro study was performed for the effect of graded doses of diflunisal on the plasma binding of acetazolamide. Both drugs were added to plasma of a single non-glaucomatous individual and duplicate dialyses were done.
as §2
^a In Vitro plasma binding of 90 μM acetazolamide in a single
individual ([…]) following graded concentrations of diflunisal.

[6] = Plasma protein binding (background and discussion); format: in vitro ADME; settings: read-out: plasma albumin binding of acetazolamide (converted)
glaucoma patients = assay: Side effects in glaucoma patients after addition of diflunisal; settings: acetazolamide plus diflunisal; severe nausea and extreme confusion
Protocol: as §3

human plasma protein = settings: cited from earlier work
[7] = tested on: normal volunteers (intraocular pressure); assay: Change in intraocular pressure in normal volunteers (control group) given diflunisal alone; format: in vivo, human; settings: normal controls
Protocol: Eight normal volunteers (52.3±16.4 years) on no medications participated in this study as a control group to study the ocular hypotensive effect of diflunisal itself and were given oral diflunisal, 500 mg, twice daily for one week. The examinations before and after diflunisal were similarly taken as glaucoma patients described above.

[8] = cited from earlier work
[9] = tested on: prostaglandin synthesis (cyclooxygenase); settings: at high doses; cited from earlier work
[10] = in vivo; cited from earlier work
[11] = diflunisal 500 mg oral twice daily, one week, added to stated antiglaucoma medication

With `CC(=O)/N=c1/sc(S(N)(=O)=O)nn1C` [Methazolamide] the “Change in IOP following diflunisal treatment” value [1, 11] was -1.6 ± 1.5 mm Hg, the “mean reduction of IOP” value ([1]; added diflunisal 500 mg twice daily, one week, vs baseline) was 1.6±1.5 mm Hg and the “effect of diflunisal on hypotensive action / IOP (in words)” value [1] was “did not result in a significant reduction of IOP; also recorded: did not affect the hypotensive action”. The plasma protein binding [2] was 55%.
In the case of `CC(=O)Nc1nnc(S(N)(=O)=O)s1` [Acetazolamide, 5-acetamido-1,3,4-thiadiazole-2-sulfonamide], the “relationship between daily dosage of acetazolamide and IOP reduction” value ([1]; FIG. 1, after one week of diflunisal) is reported as “no relationship between the daily dosage of acetazolamide and the IOP reduction”, the “Change in IOP following diflunisal treatment” value [1, 11] is reported as -3.8 ± 3.1 mm Hg and the “effect of diflunisal on hypotensive action / IOP (in words)” value [1] is reported as “significant decrease in IOP”. The concentration ([3]; after one week on diflunisal, P<0.015 vs baseline) was 31.8 ± 16.1 µM, the concentration ([3]; baseline before diflunisal) was 19.1 ± 9.1 µM and the “increase in free plasma levels of acetazolamide” value ([3]; addition of diflunisal) was 5.6 fold. The “increase in total plasma levels of acetazolamide” value ([3]; addition of diflunisal) was ~50%, the “free (unbound) acetazolamide plasma concentration” value ([3]; after diflunisal) was 5.6 ± 4.1 µM and 5.6 µM and the “free (unbound) acetazolamide plasma concentration” value ([3]; before diflunisal) was 1.0 ± 0.6 µM and 1.0 µM. The “change in total acetazolamide plasma level over one week” value ([3]; six patients without additional diflunisal, P≥0.05) was “no significant change”, the fraction unbound at 18 h ([4]; after diflunisal) was 0.162 ± 0.087 and the fraction unbound at 18 h ([4]; before diflunisal) was 0.043 ± 0.027. It also gave a fraction unbound at 18 h, 90 µM ([5]; diflunisal 0 μm) of 0.07, a fraction unbound at 18 h, 90 µM ([5]; diflunisal 200 μm) of 0.14 and a fraction unbound at 18 h, 90 µM ([5]; diflunisal 400 μm) of 0.22. The fraction unbound at 18 h, 90 µM ([5]; diflunisal 600 μm) was 0.26, the fraction unbound ([6]; reduced by diflunisal) was ~0.2 and the fraction unbound ([6]; without diflunisal) was 0.03 to 0.07. The “patients dropped from study because of severe side effects” value (glaucoma patients) was “Two”.
For `O=C(O)c1ccccc1O` [Salicylate, salicylic acid], the “unbinding of acetazolamide from plasma proteins” value (human plasma protein) is listed as “unbind acetazolamide from plasma proteins”.
For `O=C(O)c1cc(-c2ccc(F)cc2F)ccc1O` [Diflunisal, 2-(hydroxy)-5-(2,4-difluorophenyl) benzoic acid], the “Change in IOP following diflunisal treatment” value ([1]; diflunisal 500 mg twice daily, one week, topically treated only, n = 22 eyes) was -0.7 ± 2.1 mm Hg, the “change in IOP after diflunisal (in words)” value ([1]; patients on topical medications alone, plus diflunisal) was “no significant change in IOP; also recorded: did not result in a significant reduction of IOP” and the “Change in IOP following diflunisal treatment” value ([7]; Table I, diflunisal alone 500 mg twice daily, one week, n = 16 eyes, mean ± SD) was 0.0 ± 1.0 mm Hg. The “change in IOP after diflunisal (in words)” value ([7]; diflunisal alone) was “no significant change in IOP; also recorded: did not result in a significant reduction of IOP”, the “time to steady state plasma levels” value ([8]; 500 mg twice daily) was 3 to 9 days and the “time to peak plasma levels” value ([8]; in vivo, po) was 2 to 3 h. For the same compound, the “absorption from the intestines” value ([8]; in vivo) was “well absorbed from the intestines”, the excretion ([8]; in vivo) was “excreted mostly in the urine as a glucuronide” and the “displacement of drugs from plasma protein” value (human plasma protein) was “can unbind partially bound compounds such as salicylic acid and phenprocoumin”. The “displacement of drugs from plasma protein” value (human plasma protein; listed as diflunisal) was “displace the following compounds from human plasma protein: salicylate and phenprocoumin”, the “inhibition of prostaglandin synthesis” value [9] was “inhibits prostaglandin synthesis” and the “most frequent adverse reactions” value [10] was “nausea, gastrointestinal discomfort and diarrhea”. The tolerability versus aspirin [10] was “generally better tolerated than aspirin”.
